Results reported in patent US6762170B1, “2-(purin-9-yl)-tetrahydrofuran-3,4-diol derivatives” (SmithKlineBeecham Corporation, priority 1998, dated 2004).
Structures can show the parent of a compound that is named as a salt.

Legend:
Assay type in all cases: cell-based
Adenosine 2a receptor = target: T1, Adenosine 2a receptor (Homo sapiens, UniProt P29274); experiment: Agonist activity against adenosine 2a receptor subtype (CHO cells, cAMP response element/SPAP reporter); settings: EC50 ratio to NECA; transfected CHO cells, basal cAMP reflected by SPAP
T1 construct: expressed in transfected cells; host or cells: Chinese hamster ovary (CHO) cells, co-transfected with a CRE-SPAP reporter
Method: (§1) (1) Agonist Activity Against Adenosine 2a, Adenosine 1 and Adenosine 3 Receptor Subtypes.
(§2) Agonist selectivity of compounds against other human adenosine receptors is determined using Chinese hamster ovary (CHO) cells transfected with the gene for the relevant human adenosine receptor following a method based on that of Castanon and Spevak, 1994. The CHO cells are also transfected with cyclic AMP response elements promoting the gene for secreted placental alkaline phosphatase (SPAP) (Wood, 1995). The effect of test compounds may be determined by their effects on basal levels of cAMP (A2a) or on forskolin-enhanced cAMP (A1 and A3) as reflected by changes in levels of SPAP. EC50 values for compounds may then be determined as a ratio to that of the non-selective agonist N-ethyl carboxamide adenosine (NECA).
(§3) Values given in the Table are EC50 values as a ratio of that of NECA.

Adenosine 3 receptor = target: T2, Adenosine 3 receptor (Homo sapiens, UniProt P0DMS8); experiment: Agonist activity against adenosine 3 receptor subtype (CHO cells, forskolin-enhanced cAMP, SPAP reporter); settings: EC50 ratio to NECA; transfected CHO cells, forskolin-enhanced cAMP reflected by SPAP
T2 construct: expressed in transfected cells; host or cells: Chinese hamster ovary (CHO) cells, co-transfected with a CRE-SPAP reporter
T2 sequence (P0DMS8 1-318): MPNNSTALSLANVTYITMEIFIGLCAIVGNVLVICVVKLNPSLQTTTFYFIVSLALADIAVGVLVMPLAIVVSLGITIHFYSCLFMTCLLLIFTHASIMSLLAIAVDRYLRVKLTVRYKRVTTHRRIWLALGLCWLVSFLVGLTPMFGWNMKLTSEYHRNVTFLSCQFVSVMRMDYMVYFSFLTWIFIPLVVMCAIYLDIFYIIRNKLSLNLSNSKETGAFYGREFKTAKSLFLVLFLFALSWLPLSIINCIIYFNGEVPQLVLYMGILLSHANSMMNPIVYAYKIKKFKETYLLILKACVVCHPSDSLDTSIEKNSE
Method: as §1, §2, §3

Adenosine 1 receptor = target: T3, Adenosine 1 receptor (Homo sapiens, UniProt P30542); experiment: Agonist activity against adenosine 1 receptor subtype (CHO cells, forskolin-enhanced cAMP, SPAP reporter); settings: EC50 ratio to NECA; transfected CHO cells, forskolin-enhanced cAMP reflected by SPAP
T3 construct: expressed in transfected cells; host or cells: Chinese hamster ovary (CHO) cells, co-transfected with a CRE-SPAP reporter
T3 sequence (P30542 1-326): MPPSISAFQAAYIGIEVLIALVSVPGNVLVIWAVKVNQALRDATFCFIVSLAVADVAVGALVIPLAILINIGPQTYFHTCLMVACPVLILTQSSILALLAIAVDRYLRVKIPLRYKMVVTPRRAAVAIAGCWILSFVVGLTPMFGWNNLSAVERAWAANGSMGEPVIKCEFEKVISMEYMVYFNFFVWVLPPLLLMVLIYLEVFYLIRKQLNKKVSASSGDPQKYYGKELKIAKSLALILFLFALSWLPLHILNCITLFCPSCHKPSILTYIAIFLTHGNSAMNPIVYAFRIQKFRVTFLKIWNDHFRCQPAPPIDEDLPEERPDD
Method: as §1, §2, §3

T1 sequence (P29274 whole entry): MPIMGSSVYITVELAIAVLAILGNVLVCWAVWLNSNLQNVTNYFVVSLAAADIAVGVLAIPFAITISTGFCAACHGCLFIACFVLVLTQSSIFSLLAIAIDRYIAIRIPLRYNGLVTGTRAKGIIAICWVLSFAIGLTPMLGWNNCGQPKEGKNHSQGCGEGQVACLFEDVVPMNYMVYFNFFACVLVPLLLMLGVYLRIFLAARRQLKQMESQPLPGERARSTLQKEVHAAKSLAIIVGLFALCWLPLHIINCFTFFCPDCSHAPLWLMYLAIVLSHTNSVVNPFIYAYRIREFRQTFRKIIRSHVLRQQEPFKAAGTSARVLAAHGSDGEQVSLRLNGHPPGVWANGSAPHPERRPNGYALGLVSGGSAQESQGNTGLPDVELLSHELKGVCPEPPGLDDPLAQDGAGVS

Molecule	A2a (EC50 values as a ratio of that of NECA) (Adenosine 2a receptor)	A3 (EC50 values as a ratio of that of NECA) (Adenosine 3 receptor)	A1 (EC50 values as a ratio of that of NECA) (Adenosine 1 receptor)
CCc1cc(C2OC(n3cnc4c(NCc5cccc(I)c5)nc(NCCc5cn(C)cn5)nc43)C(O)C2O)on1.O=CO.O=CO [Example 20, (2S,3S,4R,5R)-2-(3-Ethyl-isoxazol-5-yl)-5-{6-(3-iodo-benzylamino)-2-[2-(1-methyl-1H-imidazol-4-yl)-ethylamino]-purin-9-yl}-tetrahydro-furan-3,4-diol diformate]	2.04	>267	310.9
(2R,3R,4S,5S)-2-[2-Ethylamino-6-(3-iodo-benzylamino)-purin-9-yl]-5-(3-ethyl-isoxazol-5-yl)-tetrahydro-furan-3,4-diol formate [Example 66]	8.32	>262	189.98
CCC(CC)Nc1nc(NCCc2cn(C)cn2)nc2c1ncn2C1OC(c2cc(C=NO)no2)C(O)C1O (stereo not drawn) [Example 50, 5-(5R-{6-Ethyl-propylamino)-2-[2(1-methyl-1H-imidazol-4-yl)-ethylamino]-purin-9-yl}-3S,4R-dihydroxy-tetrahydro-furan-2S-yl)-isoxazole-3-carbaldehyde oxime diformate]	7.26	>113	>6188
CCc1cc([C@H]2O[C@@H](n3cnc4c(NCC(c5ccccc5)c5ccccc5)nc(NCCNc5ccccn5)nc43)[C@H](O)[C@@H]2O)on1.O=CO.O=CO [Example 16, (2R,3R,4S,5S)-2-{6-(2,2-Diphenyl-ethylamino)-2-[2-(pyridin-2-ylamino)-ethylamino]-purin-9-yl}-5-(3-ethyl-isoxazol-5-yl)-tetrahydro-furan-3,4-diol diformate]	0.35	>1004	442
CCc1cc(C2OC(n3cnc4c(NC5CCOCC5)nc(NC(CO)Cc5ccccc5)nc43)C(O)C2O)on1 [Example 15, (2S,3S,4R,5R)-2-(3-Ethyl-isoxazol-5-yl)-5-[2-(1S-hydroxymethyl-2-phenyl-ethylamino)-6-(tetrahydro-pyran-4-ylamino)-purin-9yl]-tetrahydro-furan-3,4-diol formate]	3.66	>146	26.05
CCc1cc(C2OC(n3cnc4c(NC(CC)CC)nc(NC(CO)Cc5ccccc5)nc43)C(O)C2O)on1 [Example 35, (2S,3S,4R,5R)-2-(3-Ethyl-4-isoxazol-5-yl)-5-[6-(1-ethyl-propylamino)-2-(1S-hydroxymethyl-2-phenyl-ethylamino)-purin-9-yl]-tetrahydro-furan-3,4-diol formate]	2.53	>223	89.16
CCc1cc(C2OC(n3cnc4c(NC(CC)CC)nc(NC5CCN(Cc6ccccc6)C5)nc43)C(O)C2O)on1 [Example 49, (2R,3R,4S,5S)-2-[2-(1-Benzyl-pyrrolidin-3S-1-ylamino)-6-(1-ethyl-propylamino)purin-9-yl]-5-(3-ethyl-isoxazol-5-yl)-tetrahydro-furan-3,4-diol formate]	7.79	>350	28.28
CCc1cc(C2OC(n3cnc4c(NCCS(=O)(=O)NC)nc(NCCN5CCCCC5)nc43)C(O)C2O)on1 (stereo not drawn) [Example 11, 2-[9-[5S-(3-Ethyl-isoxazol-5-yl)-3R,4S-dihydroxy-tetrahydro-furan-2R-yl]-2-(2-piperidin-1-yl-ethylamino)-9H-purin-6-ylamino]-ethanesulfonic acid methylamide diformate]	3.66	>303	32.9
CCc1cc(C2OC(n3cnc4c(NCCC5CCCCC5)nc(NCCc5cn(C)cn5)nc43)C(O)C2O)on1.O=CO.O=CO [Example 21, (2R,3R,4S,5S)-2-{6-(2-Cyclohexyl-ethylamino)-2-[2-(1-methyl-1H-imidazol-4-yl)-ethylamino]-purin-9-yl}5-(3-ethyl-isoxazol-5-yl)-tetrahydro-furan-3,4-diol diformate]	1.55	>267	1624.29
CCc1cc([C@H]2O[C@@H](n3cnc4c(NCC(c5ccccc5)c5ccccc5)nc(NCCN5CCCCC5)nc43)[C@H](O)[C@@H]2O)on1.O=CO.O=CO [Example 1, (2R,3R,4S,S)-2-[6-(2,2-Diphenyl-ethylamino)-2-(2-piperidin-1-yl-ethylamino)-purin-9-yl]-5-(3-ethyl-isoxazol-5-yl)-tetrahydro-furan-3,4-diol diformate]	0.52	>436	288.5

Further lines, results first:

A2a (EC50 values as a ratio of that of NECA) (Adenosine 2a receptor)	A3 (EC50 values as a ratio of that of NECA) (Adenosine 3 receptor)	A1 (EC50 values as a ratio of that of NECA) (Adenosine 1 receptor)	Molecule
2.07	>180	59.38	CCc1cc(C2OC(n3cnc4c(Nc5ccc(O)c(F)c5)nc(NCCN5CCCCC5)nc43)C(O)C2O)on1.O=CO.O=CO [Example 10, (2S,3S,4R,5R)-2-(3-Ethyl-isoxazol-5-yl)-5-[6-(3-fluoro-4-hydroxy-phenylamino)-2-(2-piperidin-1-yl-ethylamino)-purin-9-yl]-tetrahydro-furan-3,4-diol diformate]
2.41	>295	670.2	CCc1cc([C@H]2O[C@@H](n3cnc4c(NCC(c5ccccc5)c5ccccc5)nc(N[C@H]5CC[C@H](N)CC5)nc43)[C@H](O)[C@@H]2O)on1.O=CO.O=CO (relative stereo) [Example 19, (2R,3R,4S,5S)-2-[2-(trans-4-Amino-cyclohexylamino)-6-(2,2-diphenyl-ethylamino)-purin-9-yl]-5-(3-ethyl-isoxazol-5-yl)-tetrahydro-furan-3,4-diol diformate]
4.74	>262	128.27	(2S,3S,4R,5R)-2-(3-Ethyl-isoxazol-5yl)-5-[6-(3-iodo-benzylamino)-2-(2-piperidin-1-yl-ethylamino)-purin-9-yl]-tetrahydro-furan-3,4-diol diformate [Example 65]
5.39	>158	23.79	CCc1cc(C2OC(n3cnc4c(NC(CO)C(C)C)nc(NC(CO)Cc5ccccc5)nc43)C(O)C2O)on1 [Example 72, (2S,3S,4R,5R)-2-(3-Ethyl-isoxazol-5-yl)-5-{6-(1S-hydroxymethyl-2-methyl-propylamino)-2-(1S-hydroxymethyl-2-phenyl-ethylamino)-purin-9-yl}-tetrahydro-furan-3,4-diol diformate]
0.244	>525	812.2	CCC(CC)Nc1nc(NCCc2cn(C)cn2)nc2c1ncn2[C@@H]1O[C@H](c2cc(C(C)O)no2)[C@@H](O)[C@H]1O.O=CO.O=CO (stereo partly drawn) [Example 58, (2R,3R,4S,5S)-2-{6-(1-Ethyl-propylamino)-2-[2-(1-methyl-1H-imidazol-4-yl)-ethylamino]-purin-9-yl}-5-[3-(1-hydroxy-ethyl)-isoxazol-5-yl]-tetrahydro-furan-3,4-diol diformate]
